Measurements published in patent publication US5523312A, “Antipicornaviral agents” (priority 1994, dated 1996).
Values after ≈ are worked out from the molar mass of the structure shown.

System: human rhinovirus (HRV) serotypes, panel B (HRV-3, -4, -5, -9, -16, -18, -38, -66, -75 and -67)
Experiment: automated TCID-50 assay, rhinovirus-induced CPE in HeLa cells, panel B
Assay type: cell-based
Conditions: Human rhinovirus sp., HRV3, 72 h, read-out: MIC50 (minimum concentration of the compound required to inhibit 50% of the tested serotypes)
Experimental: (§1) The MIC values were determined by an automated tissue culture infectious dose 50% (TCID-50) assay. HeLa cells in monoloyers in 96-well cluster plates were infected with a dilution of picornavirus which had been shown empirically to produce 80% to 100% cytopathic effect (CPE) in 3 days in the absence of drug. The compound to be tested was serially diluted through 10, 2-fold cycles and added to the infected cells. After a 3 day incubation at 33° C. and 2.5% carbon dioxide, the cells were fixed with a 5% solution of glutaraldehyde followed by staining with a 0.25% solution of crystal violet in water. The plates were then rinsed, dried, and the amount of stain remaining in the well (a measure of intact cells) was quantitated with an optical density reader. The MIC was determined to be the concentration of compound which protected 50% of the cells from picornavirus-induced CPE relative to an untreated picornavirus control.
(§2) In the above test procedures, representative compounds of formula I were tested against some the serotypes from either a panel of fifteen human rhinovirus (HRV) serotypes, (noted in the table as panel T) namely, HRV-2, -14, -1A, -1B, -6, -21, -22, -15, -25, -30, -50, -67, -89, -86 and -41 or against some of the serotypes from a panel of 10 human rhinovirus serotypes, namely HRV-3, -4, -5, -9, -16, -18, -38, -66, -75 and -67, (noted in the table as panel B) and the MIC value, expressed in micrograms per milliliter […], for each rhinopicornavirus serotype was determined for each picornavirus, example 1e is given as an example of the data. Then MIC50 values, which are the minimum concentrations of the compound required to inhibit 50% of the tested serotypes were determined.
(§3) The following Table gives the test results for representative compounds of the invention. The panel of picornaviruses used in the test appears before the MIC80 and MIC50 figure and the number of serotypes which the compound is tested against (n) is indicated after the MIC80 and MIC50 figure.

Point of comparison: Cc1cc(CCCn2ccc3cc(-c4noc(C)n4)cc(C)c32)on1 [Example 2h], MIC50 0.158 µg/mL (≈ 0.47 µM). Against it:
- Cc1cc(CCCCCn2ccc3cc(-c4noc(C(F)F)n4)cc(C)c32)on1 [Example 2e] — 20-fold higher, 3.13 µg/mL (≈ 7.82 µM)
- Cc1cc(CCCn2ccc3cc(-c4noc(C(F)F)n4)ccc32)on1 [Example 2g] — 440-fold higher, 69.4 µg/mL (≈ 194 µM)
- Cc1cc(CCCn2ccc3cc(-c4noc(C)n4)ccc32)on1 [Example 2c] — 320-fold higher, 50.9 µg/mL (≈ 158 µM)
- Cc1cc(CCCCn2ccc3cc(-c4noc(C(F)(F)F)n4)cc(C)c32)on1 [Example 2d] — 3.2-fold higher, 0.5 µg/mL (≈ 1.24 µM)
- Cc1cc(CCCCCn2ccc3cc(-c4noc(C(F)(F)F)n4)cc(C)c32)on1 [Example 2f] — 1.9-fold higher, 0.307 µg/mL (≈ 0.734 µM)
- Cc1cc(CCCn2ccc3cc(-c4noc(C(F)(F)F)n4)ccc32)on1 [Example 2i] — 3.5-fold higher, 0.549 µg/mL (≈ 1.46 µM)

System: not listed separately
Experiment: automated TCID-50 assay, rhinovirus-induced CPE in HeLa cells, panel T
Assay type: cell-based
Conditions: Human rhinovirus sp., HRV2, 72 h, read-out: MIC50 (minimum concentration of the compound required to inhibit 50% of the tested serotypes)
Experimental: as §1, §2, §3

Point of comparison: Cc1cc(CCCCCc2cc3cc(C4=NCCO4)ccc3o2)on1 [Example 1k], MIC50 0.585 µg/mL (≈ 1.73 µM). Against it:
- Cc1cc(CCCc2cc3cc(-c4noc(C)n4)cc(C)c3o2)on1 [Example 1g] — 12-fold higher, 6.85 µg/mL (≈ 20.3 µM)
- Cc1cc(CCCCc2cc3cc(-c4noc(C(F)(F)F)n4)cc(C)c3o2)on1 [Example 1i] — 64-fold higher, 37.4 µg/mL (≈ 92.2 µM)
- Cc1cc(CCc2cc3cc(-c4nnn(C)n4)cc(C)c3o2)on1 [Example 1n] — 58-fold higher, 33.8 µg/mL (≈ 105 µM)
- Cc1cc(CCCCCc2cc3cc(C(=O)O)ccc3o2)on1 [Example 1j] — 87-fold higher, 51.1 µg/mL (≈ 163 µM)
- Cc1cc(CCCc2cc3cc(-c4nnn(C)n4)cc(C)c3o2)on1 [Example 1m] — 3-fold lower, 0.192 µg/mL (≈ 0.569 µM)
- Cc1cc(CCCCc2cc3cc(-c4noc(C)n4)ccc3o2)on1 [Example 1f] — 34-fold higher, 19.9 µg/mL (≈ 59 µM)
- Cc1cc(CCCCc2cc3cc(-c4noc(C)n4)cc(Cl)c3o2)on1 [Example 1h] — 4.7-fold lower, 0.124 µg/mL (≈ 0.333 µM)
- CCCCn1nnc(-c2cc(C)c3oc(CCCCc4cc(C)no4)cc3c2)n1 [Example 1l] — 85-fold higher, 49.8 µg/mL (≈ 127 µM)
